For five compounds, IC50 and inhibition results are on record in patent EP1157024B1, “ACETYLENIC ORTHO-SULFONAMIDO AND PHOSPHINIC ACID AMIDO BICYCLIC HETEROARYL HYDROXAMIC ACIDS AS TACE INHIBITORS” (American Cyanamid Company, priority 1999, dated 2000).

Read-outs that look alike come from different tables or passages of the source.

The target of assay [1] is TNF-α converting enzyme (TACE) (Homo sapiens, UniProt P78536). Nature of the assay: TACE inhibition (fluorescent peptidyl substrate). Type of assay: biochemical.
Procedure: Using 96-well black microtiter plates, each well receives a solution composed of 10 µL TACE (final concentration 1µg/mL), 70µL Tris buffer, pH 7.4 containing 10% glycerol (final concentration 10 mM), and 10 µL of test compound solution in DMSO (final concentration 1µM, DMSO concentration <1%) and incubated for 10 minutes at room temperature.
The reaction is read (excitation 340 nm, emission 420 nm) for 10 min. and the increase in fluorescence over time is plotted as a linear line. The slope of the line is calculated and represents the reaction rate.
The linearity of the reaction rate is confirmed (r^2 >0.85). The mean (x±em) of the control rate is calculated and compared for statistical significance (p<0.05) with drug-treated rates using Dunnett's multiple comparison test.
In assay [2] the target is MMP-9 (Homo sapiens, UniProt P14780). The experiment in a line: MMP-9 inhibition (thiopeptide or fluorescent peptide substrate). Format: biochemical.
Procedure: (§1) The enzyme activity is measured by the rate of the color increase. The thiopeptide substrate is made up fresh as a 20 mM stock in 100% DMSO and the DTNB is dissolved in 100% DMSO as a 100 mM stock and stored in the dark at room temperature. Both the substrate and DTNB are diluted together to 1 mM with substrate buffer (50 mM HEPES pH 7.5, 5 mM CaCl2) before use. The stock of enzyme is diluted with buffer (50 mM HEPES, pH 7.5, 5 mM CaCl2, 0.02% Brij) to the desired final concentration.
(§2) Alternatively, a fluorescent peptide substrate is used. In this test procedure, the peptide substrate contains a fluorescent group and a quenching group. Upon cleavage of the substrate by an MMP, the fluorescence that is generated is quantitated on the fluorescence plate reader. The assay is run in HCBC assay buffer (50mM HEPES, pH 7.0, 5 mM Ca^+2, 0.02% Brij, 0.5% Cysteine), with human recombinant MMP-1, MMP-9, or MMP-13. The substrate is dissolved in methanol and stored frozen in 1 mM aliquots. For the assay, substrate and enzymes are diluted in HCBC buffer to the desired concentrations. Compounds are added to the 96 well plate containing enzyme and the reaction is started by the addition of substrate.
(§3) For either the thiopeptide or fluorescent peptide test procedures, the slope of the line is calculated and represents the reaction rate. The linearity of the reaction rate is confirmed (r^2 >0.85).
The test system of assay [3] is THP-1 cells. Nature of the assay: THP-1 soluble protein assay (human monocytic THP-1 cell differentiation assay). Type of assay: cell-based. Conditions: read-out: THP % inhibition at 3µM, LPS-stimulated THP-1 cells. The source says: Mitogenic stimulation of THP-1 cells cause differentiation into macrophage like cells with concomitant secretion of tumor necrosis factor (TNF-•) and TNF receptor (TNF-R p75/80 and TNF-R p55/60) and Interleukin-8 (IL-8), among other proteins. In addition, non-stimulated THP-1 cells shed both the p75/80 and the p55/60 receptors over time. […] THP-1 cells (from ATCC) are a human monocytic cell line which were obtained from the peripheral blood of a person with acute monocytic leukemia. They can be grown in culture and differentiated into macrophage like cells by stimulation with mitogens. For the assay, THP-1 cells are seeded from an ATCC stock which was previously grown and frozen back at 5 x 10^6/ml/vial. […] Each vial of cells are cultured for about two weeks prior to being used for an assay and then are used for only 4 to 6 weeks to screen compounds. Cells are subcultured on Mondays and Thursdays to a concentration of 1 x 10^5/ml. […] At the same time, […] of drug, vehicle or THP-1 media is plated in appropriate wells to give a final volume of 1.2 ml/well. […] Cell exposure to DMSO was limited to 0.1 % final concentration. Positive control wells were included in the experiment which had mitogen added but no drug. Vehicle control wells were included as well, which were identical to the positive control wells, except that DMSO was added to give a final concentration of 0.083%. Negative control wells were included in the experiment which had vehicle but no mitogen or drug added to the cells. Compounds can be evaluated for their effect on basal (non-stimulated) shedding of the receptors by replacing the LPS with […] of THP-1 media. Plates are placed into an incubator set at 5% CO2 and at 37 °C. After 4 hours of incubation, […] of tissue culture supernatant (TCS) is removed for use in an TNF-α ELISA. Following 24 hours of incubation, […] of TCS is removed and used for analysis in TNF-R p75/80, TNF-R p55/60 and IL-8 ELISAs. In addition, at the 24 hours timepoint, and the cells for each treatment group are collected by resuspension in 500 µl/well of THP-1 media and transferred into a FACS tube. Two ml/tube of a 0.5 mg/ml stock of propidium iodide (PI) (Boerhinger Mannheim cat. # 1348639) is added. The samples are run on a Becton Dickinson FaxCaliber FLOW cytometry machine and the amount of dye taken up by each cell is measured in the high red wavelength (FL3). Only cells with compromised membranes (dead or dying) can take up PI. The percent of live cells is calculated by the number of cells not stained with PI, divided by the total number of cells in the sample. The viability values calculated for the drug treated groups were compared to the viability value calculated for the vehicle treated mitogen stimulated group ("vehicle positive control") to determine the "percent change from control". This "percent change from control" value is an indicator of drug toxicity. The quantity of soluble TNF-α, TNF-R p75/80 and TNF-R p55/60 and IL-8 in the TCS of the THP-1 cell cultures are obtained with commercially available ELISAs from R&D Systems, by extrapolation from a standard curve generated with kit standards. The number of cells that either take up or exclude PI are measured by the FLOW cytometry machine and visualized by histograms using commercially available Cytologic software for each treatment group including all controls. […]

Assay [4] deals with MMP-13 (Homo sapiens, UniProt P45452). Nature of the assay: MMP-13 inhibition (thiopeptide or fluorescent peptide substrate). Type of assay: biochemical.
Procedure: as §1, §2, §3

Sequence of TNF-α converting enzyme (TACE) (P78536 215-824, species assumed): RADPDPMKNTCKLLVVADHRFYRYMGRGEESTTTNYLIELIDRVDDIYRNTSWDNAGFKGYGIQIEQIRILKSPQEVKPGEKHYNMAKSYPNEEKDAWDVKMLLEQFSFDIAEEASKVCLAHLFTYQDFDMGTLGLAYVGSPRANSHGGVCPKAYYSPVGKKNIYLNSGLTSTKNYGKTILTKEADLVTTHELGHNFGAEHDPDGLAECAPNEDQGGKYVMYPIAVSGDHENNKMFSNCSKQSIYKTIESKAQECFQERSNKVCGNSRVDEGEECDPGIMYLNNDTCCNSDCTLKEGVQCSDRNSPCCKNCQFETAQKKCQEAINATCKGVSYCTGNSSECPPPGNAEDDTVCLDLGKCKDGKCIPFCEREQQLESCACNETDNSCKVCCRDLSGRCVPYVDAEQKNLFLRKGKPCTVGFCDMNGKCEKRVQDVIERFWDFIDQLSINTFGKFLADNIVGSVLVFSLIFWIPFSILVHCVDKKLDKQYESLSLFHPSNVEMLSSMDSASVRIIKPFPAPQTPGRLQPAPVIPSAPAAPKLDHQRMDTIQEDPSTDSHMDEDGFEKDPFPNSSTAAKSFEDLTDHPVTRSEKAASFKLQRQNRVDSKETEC
Sequence of MMP-9 (P14780 94-707): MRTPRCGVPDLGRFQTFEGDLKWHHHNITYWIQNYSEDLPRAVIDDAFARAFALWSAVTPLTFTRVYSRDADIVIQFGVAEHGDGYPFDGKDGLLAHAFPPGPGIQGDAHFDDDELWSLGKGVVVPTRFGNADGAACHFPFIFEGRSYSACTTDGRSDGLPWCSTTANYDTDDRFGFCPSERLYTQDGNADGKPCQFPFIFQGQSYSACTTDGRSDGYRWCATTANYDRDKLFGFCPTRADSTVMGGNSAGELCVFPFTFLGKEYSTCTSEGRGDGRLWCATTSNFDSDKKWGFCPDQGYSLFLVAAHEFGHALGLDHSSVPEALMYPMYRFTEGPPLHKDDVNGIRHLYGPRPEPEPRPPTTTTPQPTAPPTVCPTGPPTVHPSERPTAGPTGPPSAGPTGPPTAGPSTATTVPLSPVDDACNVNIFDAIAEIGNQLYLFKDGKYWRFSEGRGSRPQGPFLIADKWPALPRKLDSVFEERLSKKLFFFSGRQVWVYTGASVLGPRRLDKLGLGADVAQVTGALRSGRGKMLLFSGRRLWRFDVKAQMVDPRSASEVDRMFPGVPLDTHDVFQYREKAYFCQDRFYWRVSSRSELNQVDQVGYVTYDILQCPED

The term IC50 denotes the midpoint of a concentration-inhibition curve. What is called inhibition is the percentage by which the read-out fell short of the control. For the compound `CC#CCOc1ccc(S(=O)(=O)N(C)c2c(C(=O)NO)cnc3c2c(C)nn3C)cc1` [Example 7, 4-[(4-But-2-ynyloxy-benzenesulfonyl)-methyl-amino]-1,3-dimethyl-1H-pyrazolo[3,4-b]pyridine-5-carboxylic acid hydroxyamide], the values for the IC50 in assay [1] and in assay [2] were 0.03 µM and 0.116 µM, respectively. The inhibition at 3 µM in assay [3] turned out to be 60%.
Regarding `CC#CCOc1ccc(S(=O)(=O)N(C)c2c(C(=O)NO)cnc3onc(C)c23)cc1` [Example 9, 4-[(4-But-2-ynyloxy-benzenesulfonyl)-methyl-amino]-3-methyl-isoxazolo[5,4-b]pyridine-5-carboxylic acid hydroxyamide], the IC50 was 0.0059 µM in assay [1], 0.244 µM in assay [2] and 0.15 µM in assay [4]. Besides, the inhibition at 3 µM in assay [3] was determined as 57%.
As to `CC#CCOc1ccc(S(=O)(=O)N(C)c2c(C(=O)NO)cnc3c(OC)cccc23)cc1` [Example 11, 4-[(4-But-2-ynyloxy-benzenesulfonyl)-methyl-amino]-8-methoxy-quinoline-3-carboxylic acid hydroxyamide], the half-inhibitory concentration (IC50) in assay [1] amounted to 0.017 µM; in assay [2] it was 0.033 µM; in assay [4] (read-out: MMP-13 IC50), 0.0092 µM. Moreover, the inhibition at 3 µM in assay [3] stood at 58%.
Regarding `CC#CCOc1ccc(S(=O)(=O)N(C)c2c(C(=O)NO)cnc3snc(C)c23)cc1` [Example 13, 4-[(4-But-2-ynyloxy-benzenesulfonyl)-methyl-amino]-3-methyl-isothiazolo[5,4-b]pyridine-5-carboxylic acid hydroxyamide], the IC50 in assay [1] came to 0.014 µM; in assay [2], 0.095 µM; in assay [4] it was 0.034 µM. Moreover, the inhibition at 3 µM in assay [3] worked out at 42%.
With `CC#CCOc1ccc(S(=O)(=O)N(C)c2c(C(=O)NO)cnc3c(Br)cccc23)cc1` [Example 99, 8-Bromo-4-[{[4-(2-butynyloxy)phenyl]sulfonyl} (methyl)amino]-N-hydroxy-3-quinolinecarboxamide], the IC50 stood at 0.082 µM in assay [1] (read-out: TACE IC50) and 0.027 µM in assay [4] (read-out: MMP-13 IC50). For the same compound, in assay [3], the inhibition at 3 µM is 32%.
